Source: ChEMBL document CHEMBL1667825, “Synthesis of cross-reactive carbohydrate determinants fragments as tools for in vitro allergy diagnosis” (Bioorg Med Chem, 2011)
Calls of active or inactive are those of the source. The calls are words filed in the database; no cut-off is given here.

Key:
[1] = species: Oryctolagus cuniculus; experiment: Binding affinity to rabbit anti-HRP immunoglobulin G antibody at 5 ug/ml using p-nitrophenyl-phosphate substrate after 15 mins by ELISA
[2] = species: Oryctolagus cuniculus; experiment: Binding affinity to rabbit anti-bee venom immunoglobulin G antibody at 5 ug/ml using p-nitrophenyl-phosphate substrate after 15 mins by ELISA
[3] = species: Homo sapiens; experiment: Binding affinity to human anti-bromelain immunoglobulin E in multiple pollen sensitised patient serum using after 30 mins by ELISA

Activity [1]	Compound	Activity [2]	Activity [3]
Active	CC(=O)N[C@H]1[C@H](O[C@H]2[C@H](O[C@@H]3O[C@@H](C)[C@@H](O)[C@@H](O)[C@@H]3O)[C@@H](NC(C)=O)[C@H](OCCCCCC(=O)NCCCCCCNC(=O)CCCC[C@H]3[C@H]4NC(=O)N[C@H]4CS3(=O)=O)O[C@@H]2CO)O[C@H](CO)[C@@H](O)[C@@H]1O		Active
Active	O=C(CCCCCO[C@@H]1O[C@H](CO[C@H]2O[C@H](CO)[C@@H](O)[C@H](O)[C@@H]2O)[C@@H](O)[C@H](O)[C@@H]1O[C@@H]1OC[C@@H](O)[C@H](O)[C@H]1O)NCCCCCCNC(=O)CCCC[C@@H]1SC[C@@H]2NC(=O)N[C@@H]21		
Active	O=C(CCCCCO[C@@H]1O[C@H](CO[C@H]2O[C@H](CO)[C@@H](O)[C@H](O)[C@@H]2O)[C@@H](O)[C@H](O[C@@H]2O[C@@H](CO)[C@H](O)[C@@H](O)[C@H]2O)[C@@H]1O[C@@H]1OC[C@@H](O)[C@H](O)[C@H]1O)NCCCCCCNC(=O)CCCC[C@@H]1SC[C@@H]2NC(=O)N[C@@H]21		Active

Compound	Activity [1]	Activity [2]	Activity [3]
CC(=O)N[C@H]1[C@H](O[C@H]2[C@H](O[C@@H]3O[C@@H](C)[C@@H](O)[C@@H](O)[C@@H]3O)[C@@H](NC(C)=O)[C@H](OCCCCCC(=O)NCCCCCCNC(=O)CCCC[C@H]3[C@H]4NC(=O)N[C@H]4CS3(=O)=O)O[C@@H]2CO[C@H]2O[C@H](C)[C@H](O)[C@H](O)[C@H]2O)O[C@H](CO)[C@@H](O)[C@@H]1O	Active	inactive	Active
